{"source": "patent US20230293599A1", "about": "“BACTERIAL COMPOSITIONS WITH ANTI-INFLAMMATORY ACTIVITY” (Universiteit Gent, priority 2020, published 2023)", "key": {"[1]": {"test_system": "R. gilardii", "experiment": "Biolog Phenotype Microarray PM1-2 growth on carbon sources", "assay_type": "cell-based, Roseomonas gilardii", "procedure": "(§1) Using Phenotype Microarray (PM) panels (Biolog), the influence of 190 carbon sources on the growth of the potential probiotic species R. mucilaginosa, R. dentocariosa, R. gilardii, G. haemolysans, and common respiratory pathogens P. aeruginosa, and S. aureus was determined. PM1 and PM2 panels (Biolog) were inoculated according to the manufacturer's instructions. Growth curves were generated for 35 hours by measuring the absorbance at 590 nm using an EnVision (Perkin Elmer) plate reader."}, "[2]": {"test_system": "P. aeruginosa", "experiment": "Biolog Phenotype Microarray PM1-2 growth on carbon sources", "assay_type": "cell-based, Pseudomonas aeruginosa", "details": "for growth of P. aeruginosa on the carbon source (in words): AUC lower than 50 = not supporting growth", "procedure": "as §1"}, "[3]": {"test_system": "S. aureus", "assay_type": "cell-based, Staphylococcus aureus", "procedure": "as §1"}, "[4]": {"test_system": "R. mucilaginosa", "experiment": "Biolog Phenotype Microarray PM1-2 growth on carbon sources", "assay_type": "cell-based, Rothia mucilaginosa", "details": "for AUC of growth curve, R. mucilaginosa: 35 hours, absorbance 590 nm, n = 1, cells without values AUC < 50; for growth of R. mucilaginosa on the carbon source (in words): AUC lower than 50 = not supporting growth", "procedure": "as §1"}, "[5]": {"test_system": "R. dentocariosa", "experiment": "Biolog Phenotype Microarray PM1-2 growth on carbon sources", "assay_type": "cell-based, Rothia dentocariosa", "details": "for growth of R. dentocariosa on the carbon source (in words): AUC lower than 50 = not supporting growth", "procedure": "as §1"}, "[6]": {"details": "35 hours, absorbance 590 nm, n = 1, cells without values AUC < 50"}}, "note": "Where two headings read alike, the source gives them in different places. Residues, ends and D or L forms follow the SMILES beside them."}
{"smiles": "O=C(O)CC(O)C(=O)O", "note": "(racemic) [D,L-Malic Acid]", "values": [{"measurement": "AUC of growth curve, R. gilardii", "setting": "[1]; [6]", "result": 169.8}, {"measurement": "AUC of growth curve, P. aeruginosa", "setting": "[2]; [6]", "result": 852.7}, {"measurement": "AUC of growth curve, S. aureus", "setting": "[3]", "result": 696.0}]}
{"smiles": "O=P(O)(O)OCC(O)CO", "note": "(racemic) [D,L-α-Glycerol-Phosphate]", "values": [{"measurement": "AUC of growth curve, R. mucilaginosa", "setting": "[4]", "result": 247.7}, {"measurement": "growth of R. mucilaginosa on the carbon source (in words)", "setting": "[4]", "result": "enable growth"}, {"measurement": "AUC of growth curve, R. dentocariosa", "setting": "[5]; [6]", "result": 271.8}, {"measurement": "growth of R. dentocariosa on the carbon source (in words)", "setting": "[5]", "result": "enable growth"}, {"measurement": "AUC of growth curve, P. aeruginosa", "setting": "[2]; [6]", "result": 114.5}, {"measurement": "growth of P. aeruginosa on the carbon source (in words)", "setting": "[2]", "result": "not or only minimally supporting growth"}, {"measurement": "growth of S. aureus on the carbon source (in words)", "setting": "[3]", "result": "not or only minimally supporting growth"}]}
{"smiles": "OC[C@H]1O[C@@H](Oc2ccc(O)cc2)[C@H](O)[C@@H](O)[C@@H]1O", "note": "[Arbutin]", "values": [{"measurement": "AUC of growth curve, R. dentocariosa", "setting": "[5]; [6]", "result": 55.2}, {"measurement": "AUC of growth curve, S. aureus", "setting": "[3]", "result": 282.2}]}
{"smiles": "O=C(O)CC(Br)C(=O)O", "note": "(centres unmarked) [Bromo Succinic Acid]", "values": [{"measurement": "AUC of growth curve, R. dentocariosa", "setting": "[5]; [6]", "result": 808.4}, {"measurement": "AUC of growth curve, R. gilardii", "setting": "[1]; [6]", "result": 67.3}, {"measurement": "AUC of growth curve, P. aeruginosa", "setting": "[2]; [6]", "result": 102.6}, {"measurement": "AUC of growth curve, S. aureus", "setting": "[3]", "result": 430.7}]}
{"smiles": "O=C(O)CC(O)(CC(=O)O)C(=O)O", "note": "[Citric Acid]", "values": [{"measurement": "AUC of growth curve, R. gilardii", "setting": "[1]; [6]", "result": 156.2}, {"measurement": "AUC of growth curve, P. aeruginosa", "setting": "[2]; [6]", "result": 846.5}, {"measurement": "AUC of growth curve, S. aureus", "setting": "[3]", "result": 169.0}]}
{"smiles": "C[C@@H](O)[C@H](O)[C@H](O)[C@@H](O)C=O", "note": "[D-Fucose]", "values": [{"measurement": "AUC of growth curve, R. dentocariosa", "setting": "[5]; [6]", "result": 119.9}, {"measurement": "AUC of growth curve, R. gilardii", "setting": "[1]; [6]", "result": 71.4}, {"measurement": "AUC of growth curve, P. aeruginosa", "setting": "[2]; [6]", "result": 91.3}, {"measurement": "AUC of growth curve, S. aureus", "setting": "[3]", "result": 138.3}]}
{"smiles": "O=C[C@H](O)[C@@H](O)[C@@H](O)[C@H](O)C(=O)O", "note": "[D-Galacturonic Acid]", "values": [{"measurement": "AUC of growth curve, R. dentocariosa", "setting": "[5]; [6]", "result": 57.0}, {"measurement": "AUC of growth curve, P. aeruginosa", "setting": "[2]; [6]", "result": 598.2}, {"measurement": "AUC of growth curve, S. aureus", "setting": "[3]", "result": 165.1}]}
{"smiles": "OC[C@H]1O[C@@](CO)(O[C@H]2O[C@H](CO)[C@@H](O)[C@H](O)[C@H]2O)[C@@H](O[C@H]2O[C@H](CO)[C@@H](O)[C@H](O)[C@H]2O)[C@@H]1O", "note": "[D-Melezitose]", "values": [{"measurement": "AUC of growth curve, R. dentocariosa", "setting": "[5]; [6]", "result": 57.2}, {"measurement": "AUC of growth curve, S. aureus", "setting": "[3]", "result": 969.2}]}
{"smiles": "OC[C@H]1O[C@H](OCC2O[C@@H](O)[C@H](O)[C@@H](O)[C@@H]2O)[C@H](O)[C@@H](O)[C@H]1O", "note": "(stereo partly drawn) [D-Melibiose]", "values": [{"measurement": "AUC of growth curve, R. dentocariosa", "setting": "[5]; [6]", "result": 249.8}, {"measurement": "AUC of growth curve, R. gilardii", "setting": "[1]; [6]", "result": 86.9}, {"measurement": "AUC of growth curve, S. aureus", "setting": "[3]", "result": 220.2}]}
{"smiles": "OC[C@@H](O)[C@@H](O)[C@H](O)[C@@H](O)CO", "note": "[D-Sorbitol]", "values": [{"measurement": "AUC of growth curve, P. aeruginosa", "setting": "[2]; [6]", "result": 129.8}, {"measurement": "AUC of growth curve, S. aureus", "setting": "[3]", "result": 412.2}]}
{"smiles": "O=C(CO)[C@@H](O)[C@@H](O)[C@H](O)CO", "note": "[D-Tagatose]", "values": [{"measurement": "AUC of growth curve, R. dentocariosa", "setting": "[5]", "result": 117.7}, {"measurement": "AUC of growth curve, R. gilardii", "setting": "[1]", "result": 75.2}, {"measurement": "AUC of growth curve, P. aeruginosa", "setting": "[2]", "result": 574.0}, {"measurement": "AUC of growth curve, S. aureus", "setting": "[3]", "result": 633.2}]}
{"smiles": "OC[C@H]1O[C@H](O[C@H]2O[C@H](CO)[C@@H](O)[C@H](O)[C@H]2O)[C@H](O)[C@@H](O)[C@@H]1O", "note": "[D-Trehalose]", "values": [{"measurement": "AUC of growth curve, R. mucilaginosa", "setting": "[4]", "result": 572.3}, {"measurement": "growth of R. mucilaginosa on the carbon source (in words)", "setting": "[4]", "result": "allowed growth"}, {"measurement": "AUC of growth curve, R. dentocariosa", "setting": "[5]; [6]", "result": 937.7}, {"measurement": "growth of R. dentocariosa on the carbon source (in words)", "setting": "[5]", "result": "allowed growth"}, {"measurement": "growth of P. aeruginosa on the carbon source (in words)", "setting": "[2]", "result": "did not support growth"}, {"measurement": "AUC of growth curve, S. aureus", "setting": "[3]", "result": 852.9}]}
{"smiles": "O=C(O)/C=C/C(=O)O", "note": "[Fumaric Acid]", "values": [{"measurement": "AUC of growth curve, R. dentocariosa", "setting": "[5]; [6]", "result": 202.9}, {"measurement": "AUC of growth curve, P. aeruginosa", "setting": "[2]; [6]", "result": 1085.5}, {"measurement": "AUC of growth curve, S. aureus", "setting": "[3]", "result": 687.9}]}
{"smiles": "NCC(=O)O", "note": "[Glycine]", "values": [{"measurement": "AUC of growth curve, P. aeruginosa", "setting": "[2]; [6]", "result": 101.6}, {"measurement": "AUC of growth curve, S. aureus", "setting": "[3]", "result": 743.1}]}
{"smiles": "NCC(=O)N[C@@H](CC(=O)O)C(=O)O", "note": "[Glycyl-L-Aspartic Acid] (H-Gly-Asp-OH)", "values": [{"measurement": "AUC of growth curve, P. aeruginosa", "setting": "[2]", "result": 538.0}, {"measurement": "AUC of growth curve, S. aureus", "setting": "[3]", "result": 840.3}]}
{"smiles": "NCC(=O)N1CCC[C@H]1C(=O)O", "note": "[Glycyl-L-Proline] (H-Gly-Pro-OH)", "values": [{"measurement": "AUC of growth curve, R. dentocariosa", "setting": "[5]", "result": 72.5}, {"measurement": "AUC of growth curve, P. aeruginosa", "setting": "[2]", "result": 387.4}, {"measurement": "AUC of growth curve, S. aureus", "setting": "[3]", "result": 292.4}]}
{"smiles": "OC[C@H]1O[C@@H](n2cnc3c(O)ncnc32)[C@H](O)[C@@H]1O", "note": "[Inosine]", "values": [{"measurement": "AUC of growth curve, P. aeruginosa", "setting": "[2]; [6]", "result": 141.0}, {"measurement": "AUC of growth curve, S. aureus", "setting": "[3]", "result": 1075.0}]}
{"smiles": "C[C@H](N)C(=O)O", "note": "[L-Alanine]", "values": [{"measurement": "AUC of growth curve, P. aeruginosa", "setting": "[2]; [6]", "result": 775.3}, {"measurement": "AUC of growth curve, S. aureus", "setting": "[3]", "result": 564.0}]}
{"smiles": "N=C(N)NCCC[C@H](N)C(=O)O", "note": "[L-Arginine]", "values": [{"measurement": "AUC of growth curve, P. aeruginosa", "setting": "[2]", "result": 285.4}, {"measurement": "AUC of growth curve, S. aureus", "setting": "[3]", "result": 816.4}]}
{"smiles": "NC(=O)C[C@H](N)C(=O)O", "note": "[L-Asparagine]", "values": [{"measurement": "AUC of growth curve, P. aeruginosa", "setting": "[2]; [6]", "result": 1032.0}, {"measurement": "AUC of growth curve, S. aureus", "setting": "[3]", "result": 684.0}]}
{"smiles": "N[C@@H](CC(=O)O)C(=O)O", "note": "[L-Aspartic Acid]", "values": [{"measurement": "AUC of growth curve, P. aeruginosa", "setting": "[2]; [6]", "result": 730.7}, {"measurement": "AUC of growth curve, S. aureus", "setting": "[3]", "result": 464.1}]}
{"smiles": "O=C1O[C@H]([C@@H](O)CO)[C@@H](O)[C@@H]1O", "note": "[L-Galactonic Acid γ-Lactone]", "values": [{"measurement": "AUC of growth curve, R. gilardii", "setting": "[1]", "result": 212.2}, {"measurement": "AUC of growth curve, P. aeruginosa", "setting": "[2]", "result": 549.8}, {"measurement": "AUC of growth curve, S. aureus", "setting": "[3]", "result": 176.4}]}
{"smiles": "N[C@@H](CCC(=O)O)C(=O)O", "note": "[L-Glutamic Acid]", "values": [{"measurement": "AUC of growth curve, P. aeruginosa", "setting": "[2]; [6]", "result": 788.3}, {"measurement": "AUC of growth curve, S. aureus", "setting": "[3]; [6]", "result": 644.7}]}
